Test results: ChEMBL document CHEMBL1123975, “2-Phenylpyrroles as conformationally restricted benzamide analogues. A new class of potential antipsychotics. 2” (J Med Chem, 1988)

Columns and labels:
D(2) dopamine receptor = D(2) dopamine receptor (Rattus norvegicus, UniProt P61169); experiment: Displacement of [3H]-Spiperone from Dopamine receptor D2 in rat striatum
Rattus norvegicus [1] = experiment: Suppression of conditioned avoidance behavior in rats following p.o. administration.; assay type: functional; settings: po
Rattus norvegicus [2] = experiment: Suppression of conditioned avoidance behavior in rats after ip administration; assay type: functional
Mus musculus = experiment: Antagonism of apomorphine-induced climbing behavior in mice after ip administration; assay type: functional
[3] = Activity calculated as Na+ ratio [IC50 (+Na+) / IC50 (-Na+)]; assay type: functional
Rattus norvegicus [4] = experiment: Induction of catalepsy in rats when administered intraperitoneally 4 hr prior to measurement to groups of nine animals; assay type: functional; settings: ip
[5] = molecular target: Serotonin 2 (5-HT2) receptor (Rattus norvegicus, UniProt P30994+P08909+P14842); experiment: Potency to displace [3H]- Spiperone from 5-hydroxytryptamine 2 receptor […]
[6] = molecular target: T1, Adrenergic receptor alpha-1 (Rattus norvegicus, UniProt P15823+P23944+P43140); experiment: Potency to displace [3H]- WB-4101 from alpha-1 adrenergic receptor in rat striatum
T1 sequence (P15823 whole entry): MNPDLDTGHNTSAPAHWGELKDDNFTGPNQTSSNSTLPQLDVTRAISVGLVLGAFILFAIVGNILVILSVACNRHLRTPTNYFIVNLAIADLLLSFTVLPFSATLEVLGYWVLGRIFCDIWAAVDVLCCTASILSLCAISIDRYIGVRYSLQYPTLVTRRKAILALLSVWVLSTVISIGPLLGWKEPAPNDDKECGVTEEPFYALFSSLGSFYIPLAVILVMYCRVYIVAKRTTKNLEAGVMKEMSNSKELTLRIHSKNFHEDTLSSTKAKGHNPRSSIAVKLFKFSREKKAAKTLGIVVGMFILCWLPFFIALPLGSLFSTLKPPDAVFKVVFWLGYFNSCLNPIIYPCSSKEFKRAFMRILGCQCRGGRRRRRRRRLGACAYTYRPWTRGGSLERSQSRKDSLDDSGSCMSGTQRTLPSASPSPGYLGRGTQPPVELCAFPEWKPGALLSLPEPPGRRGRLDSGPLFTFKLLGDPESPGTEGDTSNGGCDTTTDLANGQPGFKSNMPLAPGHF
T1 sequence (P23944 whole entry): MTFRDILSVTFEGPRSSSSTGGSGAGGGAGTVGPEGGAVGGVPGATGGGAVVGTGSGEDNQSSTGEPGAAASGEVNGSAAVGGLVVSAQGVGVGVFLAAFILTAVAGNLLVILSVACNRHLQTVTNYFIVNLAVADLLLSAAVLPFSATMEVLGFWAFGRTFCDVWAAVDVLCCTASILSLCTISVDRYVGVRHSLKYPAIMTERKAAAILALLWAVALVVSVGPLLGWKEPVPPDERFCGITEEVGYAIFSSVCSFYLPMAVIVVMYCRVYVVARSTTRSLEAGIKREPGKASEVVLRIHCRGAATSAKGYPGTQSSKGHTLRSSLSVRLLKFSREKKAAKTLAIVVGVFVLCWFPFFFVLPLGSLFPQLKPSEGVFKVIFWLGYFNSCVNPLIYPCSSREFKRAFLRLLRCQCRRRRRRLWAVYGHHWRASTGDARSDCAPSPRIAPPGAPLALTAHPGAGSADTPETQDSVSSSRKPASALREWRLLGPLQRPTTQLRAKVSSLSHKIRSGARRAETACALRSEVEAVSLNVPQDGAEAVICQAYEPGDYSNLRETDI
T1 sequence (P43140 whole entry): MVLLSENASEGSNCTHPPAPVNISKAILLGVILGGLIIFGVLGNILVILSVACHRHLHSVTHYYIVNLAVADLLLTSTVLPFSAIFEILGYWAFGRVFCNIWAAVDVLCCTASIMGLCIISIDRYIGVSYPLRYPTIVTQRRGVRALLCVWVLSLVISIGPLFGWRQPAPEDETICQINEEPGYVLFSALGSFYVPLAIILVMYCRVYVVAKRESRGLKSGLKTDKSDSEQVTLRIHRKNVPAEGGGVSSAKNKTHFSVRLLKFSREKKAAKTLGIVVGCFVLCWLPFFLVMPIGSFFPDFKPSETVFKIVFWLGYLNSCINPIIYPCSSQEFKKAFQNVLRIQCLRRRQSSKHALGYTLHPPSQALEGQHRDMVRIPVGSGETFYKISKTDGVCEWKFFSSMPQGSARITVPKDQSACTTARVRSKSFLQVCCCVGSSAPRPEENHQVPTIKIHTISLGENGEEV

Chain of D(2) dopamine receptor (P61169 whole entry): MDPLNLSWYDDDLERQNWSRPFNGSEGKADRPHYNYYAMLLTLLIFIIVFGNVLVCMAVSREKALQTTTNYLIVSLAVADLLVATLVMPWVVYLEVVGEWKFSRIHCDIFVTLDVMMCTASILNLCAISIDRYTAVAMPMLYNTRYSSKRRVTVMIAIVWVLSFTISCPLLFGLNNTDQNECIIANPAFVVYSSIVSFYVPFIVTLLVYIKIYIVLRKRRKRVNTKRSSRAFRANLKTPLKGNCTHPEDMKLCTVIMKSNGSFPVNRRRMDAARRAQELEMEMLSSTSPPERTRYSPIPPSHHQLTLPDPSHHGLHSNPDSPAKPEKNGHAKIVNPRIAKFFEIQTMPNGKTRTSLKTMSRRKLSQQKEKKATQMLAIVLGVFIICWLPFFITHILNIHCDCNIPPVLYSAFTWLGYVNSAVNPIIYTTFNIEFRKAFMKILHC

| SMILES | Ki (D(2) dopamine receptor) [µM] | ED50 (Rattus norvegicus [1]) [mg/kg] | ED50 (Rattus norvegicus [2]) [mg/kg] | further results |
| --- | --- | --- | --- | --- |
| O=C(c1ccc(F)cc1)N1CCN(Cc2ccc(-c3ccc(F)cc3)[nH]2)CC1 | 0.12 | 34 | – | – |
| OCCN1CCN(Cc2ccc(-c3ccc(F)cc3)[nH]2)CC1 | 31 | – | > 100 | – |
| Fc1ccc(-c2ccc(CN3CCC(c4ccccc4)CC3)[nH]2)cc1 | 0.011 | – | > 100 | – |
| CCCn1c(CN2CCN(c3ccccc3OC)CC2)ccc1-c1ccc(F)cc1 | 0.11 | – | > 50 | – |
| COc1ccccc1N1CCN(CCCC(=O)c2ccc(F)cc2)CC1 [FLUANISONE] | 0.0024 | – | – | Na+ ratio [3]: 1.4 |
| COc1ccccc1N1CCN(Cc2ccc(-c3ccc(F)cc3)n2C)CC1 | 0.02 | – | – | – |
| Fc1ccc(-c2ccc(CN3CCN(c4cccc(C(F)(F)F)c4)CC3)[nH]2)cc1 | 0.019 | 21 | – | – |
| Fc1ccc(-c2ccc(CN3CCN(c4ccc(F)cc4)CC3)[nH]2)cc1 | 0.016 | 40 | – | – |
| O=C(CCCN1CCN(c2cccc3ccoc23)CC1)c1ccc(F)cc1 | 0.0051 | 7.6 | 5.6 | Ki [5]: 0.0082 µM; ED50 (Mus musculus): 5 mg/kg; Ki [6]: 0.0015 µM; Na+ ratio [3]: 1.4 |
| COc1ccccc1N1CCN(CCNC(=O)c2ccc(F)cc2)CC1 | – | – | 0.7 | – |
| O=C(c1ccc(F)cc1)C1CCN(Cc2ccc(-c3ccc(F)cc3)[nH]2)CC1 | 0.012 | 34 | – | – |
| COc1ccccc1N1CCN(Cc2ccc(-c3ccc(F)cc3)n2CCO)CC1 | 0.052 | > 100 | – | – |
| O=C(NCCN1CCN(c2cccc3ccoc23)CC1)c1ccc(F)cc1 | 0.0071 | 21 | 2.7 | Ki [5]: 0.029 µM; ED50 (Mus musculus): 1.8 mg/kg; Ki [6]: 0.0097 µM; Na+ ratio [3]: 2.5; ED50 (Rattus norvegicus [4]): > 30 mg/kg |

Continued, in another order:

| Ki (D(2) dopamine receptor) [µM] | SMILES | ED50 (Rattus norvegicus [1]) [mg/kg] | ED50 (Rattus norvegicus [2]) [mg/kg] | further results |
| --- | --- | --- | --- | --- |
| 0.00076 | COc1ccccc1N1CCN(Cc2ccc(-c3ccccc3)[nH]2)CC1 | 13 | 1.9 | ED50 (Mus musculus): 0.4 mg/kg |
| 0.00096 | COc1ccccc1N1CCN(Cc2ccc(-c3ccc(F)cc3)[nH]2)CC1 | – | – | Na+ ratio [3]: 2.3; ED50 (Rattus norvegicus [4]): > 23 mg/kg |
| 0.00068 | c1ccc(-c2ccc(CN3CCN(c4cccc5c4OCCCO5)CC3)[nH]2)cc1 | 12 | – | ED50 (Mus musculus): 0.2 mg/kg |
| 0.059 | COc1ccccc1N1CCN(Cc2ccc(-c3ccc(C(C)C)cc3)[nH]2)CC1 | – | > 100 | – |
| 0.00045 | Fc1ccc(-c2ccc(CN3CCN(c4cccc5ccoc45)CC3)[nH]2)cc1 [ELOPIPRAZOLE] | 2.5 | 5.4 | Ki [5]: 0.12 µM; ED50 (Mus musculus): 2.3 mg/kg; Ki [6]: 0.22 µM; Na+ ratio [3]: 2; ED50 (Rattus norvegicus [4]): > 54 mg/kg |
| 0.0011 | COc1ccccc1N1CCN(Cc2ccc(-c3c(F)cccc3F)[nH]2)CC1 | 30 | – | – |
| 0.025 | COc1ccccc1N1CCN(Cc2ccc(-c3ccc(C(F)(F)F)cc3)[nH]2)CC1 | 45 | – | – |
| 0.007 | CCS(=O)(=O)c1ccc(OC)c(-c2ccc(CN3CCN(c4ccccc4OC)CC3)[nH]2)c1 | – | – | – |
| 0.0044 | COc1ccccc1N1CCN(Cc2ccc(-c3cccc(Cl)c3)[nH]2)CC1 | > 100 | – | – |
| 0.001 | COc1ccccc1C1CCN(Cc2ccc(-c3ccccc3)[nH]2)CC1 | 100 | – | ED50 (Mus musculus): 1.7 mg/kg |
| 0.16 | COc1ccccc1N1CCN(Cc2ccc(-c3ccccc3)n2-c2ccccc2)CC1 | > 100 | – | – |
| 0.0065 | COc1ccccc1-c1ccc(CN2CCN(c3ccccc3OC)CC2)[nH]1 | – | > 100 | – |
